{"source": "patent US9321773B2", "about": "“Compounds” (Respivert Ltd, priority 2009, dated 2016)", "key": {"[1]": {"test_system": "H2O2 induced pAkt in D-U937 cells", "assay": "PI3Kδ Cell Based Assay (H2O2 induced pAkt)", "conditions": "Homo sapiens, dU937", "outline": "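U937 cells differentiated to macrophage-type cells with PMA (100 ng/mL, 48 to 72 hr), then stimulated with H2O2. pAkt and total Akt detected by antibody-based immunoassay. Ratio of pAkt to total Akt signal used; IC50 from concentration-response curves of serially diluted compounds.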"}, "[2]": {"test_system": "cigarette smoke-induced pulmonary macrophage and neutrophil influx", "assay": "Cigarette Smoke Model", "format": "in vivo, mouse", "conditions": "A/J mice", "experimental": "A/J mice (males, 5 weeks old) were exposed to cigarette smoke (4% cigarette smoke, diluted with compressed air) for 30 min/day for 11 days using a Tobacco Smoke Inhalation Experiment System for small animals (Model SIS-CS; Sibata Scientific Technology, Tokyo, Japan). Test substances were given intra-nasally (35 μL of solution in 50% DMSO/PBS) and therapeutically twice daily for 3 days after the final cigarette smoke exposure. Twelve hr after the last dosing, animals were anesthetized, the trachea cannulated and bronchoalveolar lavage fluid (BALF) was collected. The numbers of alveolar macrophages and neutrophils were determined by FACS analysis (EPICS® ALTRA II, Beckman Coulter, Inc., Fullerton, Calif., USA) using anti-mouse MOMA2 antibody (macrophage) or anti-mouse 7/4 antibody (neutrophil)."}, "[3]": {"test_system": "LPS induced neutrophilia in mouse lung", "assay": "LPS-Induced Neutrophilia in the Mouse", "format": "in vivo", "conditions": "intra-tracheal dosing before LPS challenge, mouse", "experimental": "Non-fasted mice were dosed by the intra-tracheal route with either vehicle, or the test substance at the time points (“pre-dose”) indicated with respect to the start of LPS treatment. At T=0, mice were placed into an exposure chamber and exposed to LPS. Eight hr after LPS challenge, animals were anesthetized, the trachea cannulated and BALF extracted by infusing and withdrawing 1 mL of PBS into the lungs via a tracheal catheter. Total and differential white cell counts in the BALF samples were measured using a Neubaur haemocytometer. Cytospin smears of the BALF samples were prepared by centrifugation at 200 rpm for 5 min at RT and stained using a DiffQuik stain system (Dade Behring). Cells were counted using oil immersion microscopy."}, "[4]": {"biological_target": "recombinant PI3 kinase δ (Homo sapiens (Human), UniProt O00329)", "sequence (O00329 whole entry, the tested form may be a part)": "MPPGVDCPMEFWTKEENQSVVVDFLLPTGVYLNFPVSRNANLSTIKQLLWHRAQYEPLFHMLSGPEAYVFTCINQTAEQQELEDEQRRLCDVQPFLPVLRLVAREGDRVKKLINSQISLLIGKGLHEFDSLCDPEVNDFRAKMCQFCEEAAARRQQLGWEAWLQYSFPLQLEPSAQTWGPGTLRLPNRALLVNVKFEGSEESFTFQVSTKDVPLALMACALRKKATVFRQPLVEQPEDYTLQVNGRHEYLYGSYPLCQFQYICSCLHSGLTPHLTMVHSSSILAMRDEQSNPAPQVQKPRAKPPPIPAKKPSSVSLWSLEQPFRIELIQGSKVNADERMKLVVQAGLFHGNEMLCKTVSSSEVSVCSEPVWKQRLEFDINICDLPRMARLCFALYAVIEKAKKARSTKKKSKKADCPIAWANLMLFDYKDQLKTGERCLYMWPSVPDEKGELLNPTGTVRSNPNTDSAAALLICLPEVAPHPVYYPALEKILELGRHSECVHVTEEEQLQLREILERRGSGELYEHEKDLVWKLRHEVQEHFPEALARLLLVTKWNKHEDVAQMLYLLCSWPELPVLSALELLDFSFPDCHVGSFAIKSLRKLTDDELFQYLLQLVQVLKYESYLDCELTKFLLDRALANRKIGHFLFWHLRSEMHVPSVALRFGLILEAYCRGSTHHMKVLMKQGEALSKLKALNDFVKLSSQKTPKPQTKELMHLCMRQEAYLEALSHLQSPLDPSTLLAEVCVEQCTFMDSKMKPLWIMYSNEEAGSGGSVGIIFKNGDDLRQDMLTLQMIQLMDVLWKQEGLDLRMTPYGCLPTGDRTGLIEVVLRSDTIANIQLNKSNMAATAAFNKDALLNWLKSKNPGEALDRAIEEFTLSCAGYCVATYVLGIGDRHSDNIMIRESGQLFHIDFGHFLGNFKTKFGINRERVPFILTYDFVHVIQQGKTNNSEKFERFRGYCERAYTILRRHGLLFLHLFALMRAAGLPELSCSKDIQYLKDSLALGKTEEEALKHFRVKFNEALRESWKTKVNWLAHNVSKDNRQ", "sequence (P27986 whole entry partner, the tested form may be a part)": "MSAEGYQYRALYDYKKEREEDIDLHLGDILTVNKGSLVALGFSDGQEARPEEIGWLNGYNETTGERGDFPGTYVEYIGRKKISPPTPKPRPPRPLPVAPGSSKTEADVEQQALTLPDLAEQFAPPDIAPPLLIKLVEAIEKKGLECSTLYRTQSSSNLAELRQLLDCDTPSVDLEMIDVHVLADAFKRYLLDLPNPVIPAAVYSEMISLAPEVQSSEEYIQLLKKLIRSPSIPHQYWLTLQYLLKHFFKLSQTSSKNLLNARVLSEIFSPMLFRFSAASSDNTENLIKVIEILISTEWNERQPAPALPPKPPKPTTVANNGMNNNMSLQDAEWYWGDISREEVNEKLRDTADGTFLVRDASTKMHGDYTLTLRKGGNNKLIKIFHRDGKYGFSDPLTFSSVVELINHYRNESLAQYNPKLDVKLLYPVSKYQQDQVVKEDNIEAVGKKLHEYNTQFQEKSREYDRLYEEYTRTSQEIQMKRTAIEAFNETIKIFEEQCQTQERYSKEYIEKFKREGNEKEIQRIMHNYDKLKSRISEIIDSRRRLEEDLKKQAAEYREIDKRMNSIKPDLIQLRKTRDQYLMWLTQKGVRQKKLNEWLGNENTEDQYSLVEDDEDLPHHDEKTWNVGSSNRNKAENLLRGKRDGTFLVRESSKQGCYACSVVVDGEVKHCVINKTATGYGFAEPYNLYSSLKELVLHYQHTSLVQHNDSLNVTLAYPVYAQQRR", "assay": "Enzyme Inhibition Assay (HTRF PI3K enzyme assay, TR-FRET)", "format": "biochemical", "outline": "(§1)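 Recombinant PI3Kα, δ or γ incubated with PIP2 substrate and compound for 2 hr at RT. Stop solution with biotin-PIP3 and GST-GRP1 PH domain/Eu-anti-GST/SA-APC detection mix added, then 15-18 hr at RT. PIP3 formed reduces the TR-FRET signal.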"}, "[5]": {"biological_target": "recombinant PI3 kinase γ (Homo sapiens (Human), UniProt P48736)", "sequence (P48736 whole entry)": "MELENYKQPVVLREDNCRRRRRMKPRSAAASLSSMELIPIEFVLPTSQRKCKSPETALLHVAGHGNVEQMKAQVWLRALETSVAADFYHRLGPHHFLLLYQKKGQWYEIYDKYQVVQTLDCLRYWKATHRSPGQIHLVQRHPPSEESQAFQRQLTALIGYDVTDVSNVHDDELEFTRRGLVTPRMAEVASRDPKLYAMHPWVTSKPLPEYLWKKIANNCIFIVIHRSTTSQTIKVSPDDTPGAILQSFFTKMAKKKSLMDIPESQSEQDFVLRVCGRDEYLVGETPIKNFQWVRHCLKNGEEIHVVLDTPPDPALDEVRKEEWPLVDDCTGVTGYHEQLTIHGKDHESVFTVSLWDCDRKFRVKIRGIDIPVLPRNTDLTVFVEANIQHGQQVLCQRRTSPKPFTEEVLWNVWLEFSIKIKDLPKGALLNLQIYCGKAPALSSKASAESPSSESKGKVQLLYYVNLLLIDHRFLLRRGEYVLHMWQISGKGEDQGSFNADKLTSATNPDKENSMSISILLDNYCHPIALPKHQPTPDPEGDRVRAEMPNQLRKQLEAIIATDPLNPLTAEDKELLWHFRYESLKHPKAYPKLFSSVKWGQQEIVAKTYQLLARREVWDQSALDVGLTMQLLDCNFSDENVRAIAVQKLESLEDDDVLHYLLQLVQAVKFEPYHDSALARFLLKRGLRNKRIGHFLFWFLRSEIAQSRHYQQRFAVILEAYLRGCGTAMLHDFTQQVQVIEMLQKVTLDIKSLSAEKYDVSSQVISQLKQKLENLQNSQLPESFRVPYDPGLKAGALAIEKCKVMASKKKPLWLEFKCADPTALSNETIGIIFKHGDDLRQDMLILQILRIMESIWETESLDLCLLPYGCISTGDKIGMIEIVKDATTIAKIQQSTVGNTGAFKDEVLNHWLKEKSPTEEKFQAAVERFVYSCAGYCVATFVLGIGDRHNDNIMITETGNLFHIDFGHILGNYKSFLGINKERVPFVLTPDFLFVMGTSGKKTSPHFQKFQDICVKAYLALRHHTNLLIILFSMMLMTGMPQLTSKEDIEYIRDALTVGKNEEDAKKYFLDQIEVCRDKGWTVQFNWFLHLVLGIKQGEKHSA", "assay": "Enzyme Inhibition Assay (HTRF PI3K enzyme assay, TR-FRET)", "format": "biochemical", "outline": "as §1"}, "[6]": {"biological_target": "recombinant PI3 kinase α (Homo sapiens (Human), UniProt P42336)", "sequence (P42336 whole entry)": "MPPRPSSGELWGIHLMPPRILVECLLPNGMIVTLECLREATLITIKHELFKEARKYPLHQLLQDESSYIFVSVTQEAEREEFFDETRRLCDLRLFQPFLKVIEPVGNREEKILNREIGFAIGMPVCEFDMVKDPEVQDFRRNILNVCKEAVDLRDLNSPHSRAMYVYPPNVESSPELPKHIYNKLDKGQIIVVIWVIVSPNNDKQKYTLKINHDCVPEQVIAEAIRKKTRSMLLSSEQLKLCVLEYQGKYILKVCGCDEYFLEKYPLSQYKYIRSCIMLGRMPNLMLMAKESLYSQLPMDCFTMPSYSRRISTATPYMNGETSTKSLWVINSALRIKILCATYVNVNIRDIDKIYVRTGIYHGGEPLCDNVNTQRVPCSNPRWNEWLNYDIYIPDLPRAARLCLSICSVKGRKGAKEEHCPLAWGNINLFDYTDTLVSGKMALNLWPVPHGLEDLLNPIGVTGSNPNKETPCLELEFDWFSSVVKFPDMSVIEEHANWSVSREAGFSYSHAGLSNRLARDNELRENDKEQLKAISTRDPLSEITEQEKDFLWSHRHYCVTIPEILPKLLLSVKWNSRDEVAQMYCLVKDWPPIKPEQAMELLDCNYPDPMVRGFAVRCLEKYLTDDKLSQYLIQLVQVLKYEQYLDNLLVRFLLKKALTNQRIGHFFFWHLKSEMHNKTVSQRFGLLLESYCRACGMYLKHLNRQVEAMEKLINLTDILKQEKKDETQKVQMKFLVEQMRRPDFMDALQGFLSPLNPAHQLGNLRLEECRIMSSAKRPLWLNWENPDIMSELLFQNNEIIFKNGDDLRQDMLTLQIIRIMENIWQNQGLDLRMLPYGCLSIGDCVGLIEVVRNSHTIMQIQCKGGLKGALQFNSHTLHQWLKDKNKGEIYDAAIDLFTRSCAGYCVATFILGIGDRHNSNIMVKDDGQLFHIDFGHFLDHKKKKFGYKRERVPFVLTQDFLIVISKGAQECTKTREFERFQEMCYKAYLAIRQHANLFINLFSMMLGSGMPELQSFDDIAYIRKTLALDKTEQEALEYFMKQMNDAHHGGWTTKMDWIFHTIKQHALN", "sequence (P27986 whole entry partner)": "as the sequence (P27986 whole entry partner, the tested form may be a part) above", "assay": "Enzyme Inhibition Assay (HTRF PI3K enzyme assay, TR-FRET)", "format": "biochemical", "outline": "as §1"}, "[7]": {"test_system": "PMA-differentiated U937 cells", "assay": "MTT Assay (cell viability)", "format": "cell-based, Human", "conditions": "percentage loss of cell viability", "outline": "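Differentiated U937 cells treated with compound for 4 hr (5% FCS) or 24 hr (10% FCS), then given MTT for 1 hr; formazan dissolved in DMSO and absorbance read at 550 nm. Viability loss expressed as % versus 0.5% DMSO vehicle.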"}, "[8]": {"assay": "Stereochemical analysis by chiral stationary phase HPLC (atropisomerism)", "format": "physicochemical", "conditions": "chiral stationary phase HPLC (16 different conditions for the examples)"}}, "note": "Entries after “also recorded” stand apart in the source; their conditions may differ. Read-outs that look alike come from different tables or passages of the source."}
{"smiles": "C#Cc1cccc2nc(Cn3nc(-c4cccc(O)c4)c4c(N)ncnc43)n(Cc3ccccc3Cl)c(=O)c12", "note": "[Example 1, 2-((4-Amino-3-(3-hydroxyphenyl)-1H-pyrazolo[3,4-d]pyrimidin-1-yl)methyl)-3-(2-chlorobenzyl)-5-ethynylquinazolin-4(3H)-one]", "values": [{"measurement": "IC50", "setting": "[1]; activity range, D-U937 cells, read-out: Cellular Activity IC50 values (H2O2 induced pAkt D-U937 Cells)", "result": "< 10", "unit": "nM"}, {"measurement": "IC50", "setting": "[1]; read-out: Cellular Activity IC50 values (H2O2 induced pAkt (nM) D-U937 Cells)", "result": 1.1, "unit": "nM"}, {"measurement": "anti-inflammatory activity when co-administered with fluticasone propionate", "setting": "[2]; co-administered with fluticasone propionate at a dose which lacks effect as monotherapy", "result": "marked enhancement of anti-inflammatory activity"}, {"measurement": "anti-inflammatory activity (BALF neutrophils and alveolar macrophages), monotherapy", "setting": "[2]; monotherapy, twice daily for 3 days after final smoke exposure", "result": "inhibition; also recorded: possesses anti-inflammatory activity"}, {"measurement": "inhibition of LPS-induced neutrophilia (neutrophil influx into the lung), in words", "setting": "[3]", "result": "Inhibition of LPS-induced neutrophilia"}, {"measurement": "IC50", "setting": "[4]; activity range, read-out: PI3 Kinase Inhibition IC50 values at stated Isozyme δ", "result": "< 50", "unit": "nM"}, {"measurement": "IC50", "setting": "[4]; read-out: PI3 Kinase Inhibition IC50 values at stated Isozyme (nM) δ", "result": 7, "unit": "nM"}, {"measurement": "IC50", "setting": "[5]; activity range, read-out: PI3 Kinase Inhibition IC50 values at stated Isozyme γ", "result": "50 to 1000", "unit": "nM"}, {"measurement": "IC50", "setting": "[5]; read-out: PI3 Kinase Inhibition IC50 values at stated Isozyme (nM) γ", "result": 234, "unit": "nM"}, {"measurement": "IC50", "setting": "[6]; activity range, read-out: PI3 Kinase Inhibition IC50 values at stated Isozyme α", "result": "50 to 1000", "unit": "nM"}, {"measurement": "IC50", "setting": "[6]; read-out: PI3 Kinase Inhibition IC50 values at stated Isozyme (nM) α", "result": 199, "unit": "nM"}, {"measurement": "Cell Viability MTT Assay in D-U937 cells at 4 hr", "setting": "[7]; 4 hr in 5% FCS", "result": "− (− <30%)"}, {"measurement": "Cell Viability MTT Assay in D-U937 cells at 24 hr", "setting": "[7]; 24 hr in 10% FCS", "result": "− (− <30%)"}, {"measurement": "atropisomerism by chiral stationary phase HPLC", "setting": "[8]", "result": "no evidence for atropisomerism was observed"}]}
